From patent US9127001B2, “Substituted 4,5,6,7-tetrahydro-1H-pyrazolo[4,3-c]pyridines, their use as medicament, and pharmaceutical preparations comprising them” (Sanofi, priority 2011, dated 2015) come the findings set out here.

pIC50: −log10 of the molar value.

This experiment has as its target Human TASK-1 channels (Homo sapiens (Human), UniProt O14649). Briefly: Activity on the TASK-1 channel in Xenopus oocytes (two-microelectrode voltage clamp). Format: cell-based. Conditions: for pIC50: human TASK-1 expressed in Xenopus oocytes, currents during pulses to 40 mV, room temperature. Here is the method:
Human TASK-1 channels were expressed in Xenopus oocytes. For this purpose, oocytes were isolated from Xenopus laevis and defoliculated. Subsequently, TASK-1-encoding RNA synthesized in vitro was injected into oocytes. […] Data were acquired and analyzed using a TEC-10cx amplifier (NPI Electronic, Tamm, Germany) connected to an ITC-16 interface (Instrutech Corp., Long Island, USA) and Pulse software (HEKA Elektronik, Lambrecht, Germany). […] Oocytes were continuously superfused with ND96 buffer containing: NaCl 96 mM, KCl 2 mM, CaCl2 1.8 mM, MgCl2 1 mM, HEPES 5 mM (pH adjusted to 7.4 with NaOH). All experiments were performed at room temperature.
Test substances were consecutively added to the bath solution at rising concentrations. […] IC50 values were obtained by fitting the data to the general dose-response equation.

Chain of Human TASK-1 channels (O14649 whole entry, the tested form may be a part): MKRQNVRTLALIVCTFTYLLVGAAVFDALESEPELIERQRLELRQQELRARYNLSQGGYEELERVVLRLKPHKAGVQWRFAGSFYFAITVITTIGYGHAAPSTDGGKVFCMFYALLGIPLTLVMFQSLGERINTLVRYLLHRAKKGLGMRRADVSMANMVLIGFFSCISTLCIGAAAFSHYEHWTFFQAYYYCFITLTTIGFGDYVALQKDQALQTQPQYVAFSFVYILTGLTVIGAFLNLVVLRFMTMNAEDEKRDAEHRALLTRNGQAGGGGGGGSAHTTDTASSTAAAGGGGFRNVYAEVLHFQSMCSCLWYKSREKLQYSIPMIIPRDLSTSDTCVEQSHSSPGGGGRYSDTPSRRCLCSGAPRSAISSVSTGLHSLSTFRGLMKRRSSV

The compound `CC1(C(=O)N2CCc3c(c(-c4cccc(C#N)c4)nn3Cc3ccc(F)cc3F)C2)COC1` [Example 8a, 3-[1-(2,4-Difluoro-benzyl)-5-(3-methyl-oxetane-3-carbonyl)-4,5,6,7-tetrahydro-1H-pyrazolo[4,3-c]pyridin-3-yl]-benzonitrile] showed a pIC50 of 6.56.

For `CC(C)C(=O)N1CCc2c(c(-c3cccc(C#N)c3)nn2Cc2ccc(F)cc2F)C1` [Example 8b, 3-[1-(2,4-Difluoro-benzyl)-5-isobutyryl-4,5,6,7-tetrahydro-1H-pyrazolo[4,3-c]pyridin-3-yl]-benzonitrile], the pIC50 was 7.72.

Consider `N#Cc1cccc(-c2nn(Cc3ccc(F)cc3F)c3c2CN(C(=O)C2CC2)CC3)c1` [Example 8c, 3-[5-Cyclopropanecarbonyl-1-(2,4-difluoro-benzyl)-4,5,6,7-tetrahydro-1H-pyrazolo[4,3-c]pyridin-3-yl]-benzonitrile], for which the pIC50 is 7.33.

On to `CC(C)(C)OCC(=O)N1CCc2c(c(-c3cccc(C#N)c3)nn2Cc2ccc(F)cc2F)C1` [Example 8d, 3-[5-(2-tert-Butoxy-acetyl)-1-(2,4-difluoro-benzyl)-4,5,6,7-tetrahydro-1H-pyrazolo[4,3-c]pyridin-3-yl]-benzonitrile], for which the inhibition at 5 µM turned out to be 75%.

`CS(=O)(=O)c1cccc(C(=O)N2CCc3c(c(-c4cccc(C#N)c4)nn3Cc3ccc(F)cc3F)C2)c1` [Example 8e, 3-[1-(2,4-Difluoro-benzyl)-5-(3-methanesulfonyl-benzoyl)-4,5,6,7-tetrahydro-1H-pyrazolo[4,3-c]pyridin-3-yl]-benzonitrile] showed a negative logarithm of the IC50 (pIC50) of 5.79.

The compound `O=C(c1ccc(F)cc1)N1CCc2c(c(-c3ccc(F)cc3)nn2Cc2ccccc2)C1` [Example 8f, [1-Benzyl-3-(4-fluoro-phenyl)-1,4,6,7-tetrahydro-pyrazolo[4,3-c]pyridin-5-yl]-(4-fluoro-phenyl)-methanone] had a pIC50 of 5.89.

Regarding `COc1ccc(C(=O)N2CCc3c(c(-c4ccc(F)cc4)nn3Cc3ccccc3)C2)cc1` [Example 8g, [1-Benzyl-3-(4-fluoro-phenyl)-1,4,6,7-tetrahydro-pyrazolo[4,3-c]pyridin-5-yl]-(4-methoxy-phenyl)-methanone], the pIC50 is 5.49.

As for `O=C(c1ccccc1)N1CCc2c(c(-c3ccc(F)cc3)nn2Cc2ccccc2)C1` [Example 8h, [1-Benzyl-3-(4-fluoro-phenyl)-1,4,6,7-tetrahydro-pyrazolo[4,3-c]pyridin-5-yl]-phenyl-methanone], the pIC50 is 5.62.

Turning to `N#Cc1cccc(-c2nn(Cc3ccc(F)cc3F)c3c2CN(C(=O)C2CCC2)CC3)c1` [Example 8i, 3-[5-Cyclobutane-carbonyl-1-(2,4-difluoro-benzyl)-4,5,6,7-tetrahydro-1H-pyrazolo[4,3-c]pyridin-3-yl]-benzonitrile], the pIC50 was 7.19.

`N#Cc1cccc(-c2nn(Cc3ccc(F)cc3F)c3c2CN(C(=O)C2CCCC2)CC3)c1` [Example 8j, 3-[5-Cyclopentane-carbonyl-1-(2,4-difluoro-benzyl)-4,5,6,7-tetrahydro-1H-pyrazolo[4,3-c]pyridin-3-yl]-benzonitrile] gave a pIC50 of 6.14.

With `CS(=O)(=O)c1ccc(C(=O)N2CCc3c(c(-c4cccc(C#N)c4)nn3Cc3ccc(F)cc3F)C2)cc1` [Example 8k, 3-[1-(2,4-Difluoro-benzyl)-5-(4-methanesulfonyl-benzoyl)-4,5,6,7-tetrahydro-1H-pyrazolo[4,3-c]pyridin-3-yl]-benzonitrile], the pIC50 was 6.04.

Regarding `N#Cc1cccc(-c2nn(Cc3ccc(F)cc3F)c3c2CN(C(=O)C2CCOCC2)CC3)c1` [Example 8l, 3-[1-(2,4-Difluoro-benzyl)-5-(tetra-hydro-pyran-4-carbonyl)-4,5,6,7-tetrahydro-1H-pyrazolo[4,3-c]pyridin-3-yl]-benzonitrile], the pIC50 was 6.23.

Turning to `N#Cc1cccc(-c2nn(Cc3ccc(F)cc3F)c3c2CN(C(=O)C2CCOC2)CC3)c1` (stereo not drawn) [Example 8m, 3-[1-(2,4-Difluoro-benzyl)-5-(tetrahydro-furan-3-carbonyl)-4,5,6,7-tetrahydro-1H-pyrazolo[4,3-c]pyridin-3-yl]-benzonitrile], the pIC50 is 6.05.

On to `COCC(=O)N1CCc2c(c(-c3cccc(C#N)c3)nn2Cc2ccc(F)cc2F)C1` [Example 8n, 3-[1-(2,4-Difluoro-benzyl)-5-(2-methoxy-acetyl)-4,5,6,7-tetrahydro-1H-pyrazolo[4,3-c]pyridin-3-yl]-benzonitrile], for which the inhibition at 5 µM was determined as 80%.

`CC(C)(C)C(=O)N1CCc2c(c(-c3cccc(C#N)c3)nn2Cc2ccc(F)cc2F)C1` [Example 8o, 3-[1-(2,4-Difluoro-benzyl)-5-(2,2-dimethyl-propionyl)-4,5,6,7-tetrahydro-1H-pyrazolo[4,3-c]pyridin-3-yl]-benzonitrile] had a pIC50 of 6.88.

As for `CCC(=O)N1CCc2c(c(-c3cccc(C#N)c3)nn2Cc2ccc(F)cc2F)C1` [Example 8p, 3-[1-(2,4-Difluoro-benzyl)-5-propionyl-4,5,6,7-tetrahydro-1H-pyrazolo[4,3-c]pyridin-3-yl]-benzonitrile], the negative logarithm of the IC50 (pIC50) is 6.28.

For the compound `C[C@H](O)C(=O)N1CCc2c(c(-c3cccc(C#N)c3)nn2Cc2ccc(F)cc2F)C1` [Example 8q, 3-[1-(2,4-Difluoro-benzyl)-5-((S)-2-hydroxy-propionyl)-4,5,6,7-tetrahydro-1H-pyrazolo[4,3-c]pyridin-3-yl]-benzonitrile], the pIC50 is 6.12.

Compound `O=C(Cc1ccccc1)N1CCc2c(c(-c3ccc(F)cc3)nn2Cc2ccccc2)C1` [Example 8r, 1-[1-Benzyl-3-(4-fluoro-phenyl)-1,4,6,7-tetrahydro-pyrazolo[4,3-c]pyridin-5-yl]-2-phenyl-ethanone] had a pIC50 of 5.94.

Consider `CCCC(=O)N1CCc2c(c(-c3cccc(C#N)c3)nn2Cc2ccc(F)cc2F)C1` [Example 8s, 3-[5-Butyryl-1-(2,4-difluoro-benzyl)-4,5,6,7-tetrahydro-1H-pyrazolo[4,3-c]pyridin-3-yl]-benzonitrile], for which the negative-log IC50 (pIC50) was greater than 5.00.

Regarding `N#Cc1cccc(-c2nn(Cc3ccc(F)cc3F)c3c2CN(C(=O)c2ccccn2)CC3)c1` [Example 8t, 3-[1-(2,4-Difluoro-benzyl)-5-(pyridine-2-carbonyl)-4,5,6,7-tetrahydro-1H-pyrazolo[4,3-c]pyridin-3-yl]-benzonitrile], the pIC50 is 6.61.

Regarding `N#Cc1cccc(-c2nn(Cc3ccc(F)cc3F)c3c2CN(C(=O)c2ccncc2F)CC3)c1` [Example 8u, 3-[1-(2,4-Difluoro-benzyl)-5-(3-fluoro-pyridine-4-carbonyl)-4,5,6,7-tetrahydro-1H-pyrazolo[4,3-c]pyridin-3-yl]-benzonitrile], the pIC50 is 6.38.

For the compound `N#Cc1cccc(-c2nn(Cc3ccc(F)cc3F)c3c2CN(C(=O)c2ccncn2)CC3)c1` [Example 8v, 3-[1-(2,4-Difluoro-benzyl)-5-(pyrimidine-4-carbonyl)-4,5,6,7-tetrahydro-1H-pyrazolo[4,3-c]pyridin-3-yl]-benzonitrile], the pIC50 is 6.06. Against the preceding compound, the pIC50 is 0.32 log units lower.

Consider `Cn1cncc1C(=O)N1CCc2c(c(-c3cccc(C#N)c3)nn2Cc2ccc(F)cc2F)C1` [Example 8w, 3-[1-(2,4-Difluoro-benzyl)-5-(3-methyl-3H-imidazole-4-carbonyl)-4,5,6,7-tetrahydro-1H-pyrazolo[4,3-c]pyridin-3-yl]-benzonitrile], for which the pIC50 is 5.94.

Take `Cn1ccc(C(=O)N2CCc3c(c(-c4cccc(C#N)c4)nn3Cc3ccc(F)cc3F)C2)n1` [Example 8x, 3-[1-(2,4-Difluoro-benzyl)-5-(1-methyl-1H-pyrazole-3-carbonyl)-4,5,6,7-tetrahydro-1H-pyrazolo[4,3-c]pyridin-3-yl]-benzonitrile]: the pIC50 was 5.73.

As for `CCOC(=O)N1CCc2c(c(-c3cccc(C#N)c3)nn2Cc2ccc(F)cc2F)C1` [Example 8y, 3-(3-Cyano-phenyl)-1-(2,4-difluoro-benzyl)-1,4,6,7-tetrahydro-pyrazolo[4,3-c]pyridine-5-carboxylic acid ethyl ester], the inhibition at 5 µM worked out at 77%.

As for `CC(=O)N1Cc2c(-c3ccc(F)cc3)nn(Cc3ccc(F)cc3F)c2CC1C` (stereo not drawn) [Example 8z, 1-[1-(2,4-Difluoro-benzyl)-3-(4-fluoro-phenyl)-6-methyl-1,4,6,7-tetrahydro-pyrazolo[4,3-c]pyridin-5-yl]-ethanone], the pIC50 is 6.29.

Turning to `CC(C)NC(=O)N1CCc2c(c(-c3cccc(C#N)c3)nn2Cc2ccc(F)cc2F)C1` [Example 11a, 3-(3-Cyano-phenyl)-1-(2,4-difluoro-benzyl)-1,4,6,7-tetrahydro-pyrazolo[4,3-c]pyridine-5-carboxylic acid isopropylamide], the inhibition at 5 µM amounted to 76%.

The compound `CCNC(=O)N1CCc2c(c(-c3cccc(C#N)c3)nn2Cc2ccc(F)cc2F)C1` [Example 11h, 3-(3-Cyano-phenyl)-1-(2,4-difluoro-benzyl)-1,4,6,7-tetrahydro-pyrazolo[4,3-c]pyridine-5-carboxylic acid ethylamide] showed an inhibition at 5 µM of 91%.

For the compound `CNC(=O)N1CCc2c(c(-c3cccc(C#N)c3)nn2Cc2ccc(F)cc2F)C1` [Example 12a, 3-(3-Cyano-phenyl)-1-(2,4-difluoro-benzyl)-1,4,6,7-tetrahydro-pyrazolo[4,3-c]pyridine-5-carboxylic acid methylamide], the pIC50 is 6.42.

Regarding `CN(C)C(=O)N1CCc2c(c(-c3cccc(C#N)c3)nn2Cc2ccc(F)cc2F)C1` [Example 12d, 3-(3-Cyano-phenyl)-1-(2,4-difluoro-benzyl)-1,4,6,7-tetrahydro-pyrazolo[4,3-c]pyridine-5-carboxylic acid dimethylamide], testing at 5 µM gave an inhibition of 74%.

A word on the pIC50: it is the negative decadic logarithm of the IC50, by convention in mol/L. Higher therefore signals a small IC50. What is called inhibition is the share of the control response that was lost under treatment. Read a high inhibition as a strong effect.
